Assay results taken from patent US12139470B2, “Trioxolane agents” (The Regents of the University of California, priority 2017, dated 2024).
≈ marks a conversion by molar mass, not a printed value. Like-named read-outs stand apart in the source and are kept apart here.

Legend:
Plasmodium berghei [1] = experiment: Plasmodium berghei mouse malaria model (Peters test, cures at 30 days); format: in vivo; conditions: po, 720 h; for responders at 4 mg/kg: Table 6, 4 mg/kg
From the text: The suppressive 4-day “Peters test” ^27 involving P. berghei infected mice provides a convenient and cost effective means to assess the overall in vivo performance of pre-clinical antimalarials. […] Mice were followed for 30 days and judged to have been cured of the infection based on the lack of detectable parasitemia at the end of the study.
Female Swiss Webster Mice (average of 20 g body weight) were infected intraperitoneally with 10^6 Plasmodium berghei-infected erythrocytes collected from a previously infected mouse. […] There were five mice in each test arm. Infections were monitored by daily microscopic evaluation of Giemsa-stained blood smears starting on day seven. Parasitemia were determined by counting the number of infected and uninfected erythrocytes. Body weight was measured over the course of the treatment. […] Animal survival and morbidity were closely monitored for up to 30 days post-infection when the experiment was terminated. In some cases survival is expressed as a PD100 or PD50, the dose that produces respectively 100% or 50% cures in treated animals at 30 days post infection.

[2] = test system: clinical K13-mutant strain; conditions: pulsed exposure; cited from earlier work
[3] = test system: K13 revertant strain bearing the wild type K13 allele; conditions: pulsed exposure; cited from earlier work
[4] = Mouse liver microsome assay (half-life, intrinsic clearance); conditions: for T1/2: half-life when incubated with mouse liver microsomes
From the text: A second hypothesis regarding trans-R^A substitution (R^A in Scheme 1) was that the resulting de-symmetrized molecular topology would impact the vivo PK/PD properties of these analogs. […] To explore possible metabolic differences, we evaluated selected analogs with mouse liver microsomes and derived intrinsic clearance (CLint) values (Table 1).

[5] = Kinetic solubility in PBS; format: physicochemical; conditions: kinetic solubility in PBS (pH = 7.4), final DMSO 5%, average of three determinations
Plasmodium berghei [6] = experiment: Plasmodium berghei mouse malaria model (Peters test, cures at 30 days); format: in vivo; conditions: po, 720 h, oral gavage, read-out: Mice Cured (%)
[7] = test system: Plasmodium falciparum: strain W2; experiment: Plasmodium falciparum growth inhibition assay (EC50 determinations); format: cell-based; conditions: W2 strain of P. falciparum
Experimental: The growth inhibition assay for P. falciparum was conducted as described previously^29 with minor modifications. […] Following 48 hours of incubation, the cells were fixed by adding 0.1 ml of 2% formaldehyde in phosphate buffered saline, pH=7.4 (PBS). […] Parasitemias were determined from dot plots (forward scatter vs. fluorescence) using [sequence] software (Becton Dickinson). EC50 values for growth inhibition were determined from plots of percentage control parasitemia over inhibitor concentration using GraphPad Prism software.

PC3 tumor = experiment: Biodistribution of 18F probes in PC3 tumor-bearing mice; format: in vivo, mouse
Experimental: FIG. 6. B9[^18F] biodistribution in PC3-bearing mice. An intravenous injection of 300 μCi was given at the tail vein of each mouse. At 30, 60 and 90 minutes post-injection, mice were sacrificed and their organs collected. […] FIG. 7. B9[^18F] biodistribution in PC3-bearing mice. An intravenous injection of 300 μCi was given at the tail vein of mice containing either a subcutaneous PC3 tumor or a renal capsule PC3 tumor. At 60 minutes post-injection, mice were sacrificed and their organs collected. […] FIG. 8. B20[^18F] biodistribution in PC3 tumor-bearing nude mice: An intravenous injection of 300 μCi was given at the tail vein of each mouse. At 60 and 90 minutes post-injection, mice were sacrificed and their organs collected. The radioactivity in the tumor appears to be stable at about 0.3% id/gram.

[8] = clinical setting; cited from earlier work
[9] = Table 4, 4 mg/kg/day, once a day for four days, oral gavage, read-out: Mice Cured (%)
[10] = Table 4, 6 mg/kg/day, once a day for four days, oral gavage, read-out: Mice Cured (%)

c1cc([C@H]2CC[C@]3(CC2)OO[C@]2(O3)C3CC4CC(C3)CC2C4)ccc1OCCN1CCOCC1 [3Z (artefenomel)]
responders at 40 mg/kg (Plasmodium berghei [1]; read-out: Mice Cured (%), Table 7, 40 mg/kg, 1 dose, oral gavage): 100% | responders at 80 mg/kg (Plasmodium berghei [1]; read-out: Mice Cured (%), Table 7, 80 mg/kg, 1 dose, oral gavage): 100%

c1cc([C@H]2CC[C@]3(CC2)OO[C@]2(O3)C3CC4CC(C3)CC2C4)ccc1OCCN1CCOCC1 [3Z, artefenomel]
time to reduce early ring viability by 50% (t50) [2]: ~5 h | time to reduce early ring viability by 50% (t50) [3]: ~2 h

CC(C)(N)CNC(=O)C[C@@H]1CCC[C@]2(C1)OOC1(O2)C2CC3CC(C2)CC1C3 (stereo partly drawn) [12a, N-(2-Amino-2-methylpropyl)-2-((R,R)-dispiro[adamantane-2,3′-[1,2,4]trioxolane-5′,1″-cyclohexan]-3″-yl)acetamide]
T1/2 [4]: 2.82 h | CLint ([4]; mouse, microsomes): 4.1 μL/min/mg of protein | T1/2 (min) No NADPH ([4]; mouse, microsomes): stable | Solubility [5]: 429 µM (≈ 168 µg/mL) | responders at 9.5 mg/kg/day (Plasmodium berghei [1]; Table 2, free base, 9.5 mg/kg/day, once a day for four days, oral gavage, no parasitemia at 30 days, read-out: Mice Cured (%)): 100% | responders at 13.6 mg/kg/day (Plasmodium berghei [1]; Table 2, tosylate salt, 13.6 mg/kg/day, once a day for four days, oral gavage, no parasitemia at 30 days, read-out: Mice Cured (%)): 100% | responders at 1 mg/kg/day (Plasmodium berghei [1]; Table 3, free base, 1 mg/kg/day, four daily doses, oral gavage, read-out: Mice Cured (%)): 0% | responders at 4 mg/kg/day (Plasmodium berghei [1]; Table 3, free base, 4 mg/kg/day, four daily doses, oral gavage, read-out: Mice Cured (%)): 0% | responders at 6 mg/kg/day (Plasmodium berghei [1]; Table 3, free base, 6 mg/kg/day, four daily doses, oral gavage, read-out: Mice Cured (%)): 60% | responders at 10 mg/kg/day (Plasmodium berghei [1]; Table 3, free base, 10 mg/kg/day, four daily doses, oral gavage, read-out: Mice Cured (%)): 100% | responders at 4 mg/kg/day (Plasmodium berghei [1]; [9]): 60% | responders at 6 mg/kg/day (Plasmodium berghei [1]; [10]): 100%

NC(=O)CNC(=O)C[C@@H]1CCC[C@]2(C1)OOC1(O2)C2CC3CC(C2)CC1C3 (stereo partly drawn) [12b, N-(2-Amino-2-oxoethyl)-2-((R,R)-dispiro[adamantane-2,3′-[1,2,4]trioxolane-5′,1″-cyclohexan]-3″-yl)acetamide]
T1/2 [4]: 0.622 h | CLint ([4]; mouse, microsomes): 18.6 μL/min/mg of protein | T1/2 (min) No NADPH ([4]; mouse, microsomes): stable

NCCNC(=O)C[C@@H]1CCC[C@]2(C1)OOC1(O2)C2CC3CC(C2)CC1C3 (stereo partly drawn) [12c, N-(2-Aminoethyl)-2-((R,R)-dispiro[adamantane-2,3′-[1,2,4]trioxolane-5′,1″-cyclohexan]-3″-yl)acetamide]
T1/2 [4]: 1.41 h | T1/2 (min) No NADPH ([4]; mouse liver microsomes, no NADPH): 136 min | CLint ([4]; mouse, microsomes): 8.2 μL/min/mg of protein | responders at 4 mg/kg/day (Plasmodium berghei [1]; [9]): 100% | responders at 6 mg/kg/day (Plasmodium berghei [1]; [10]): 100% | responders at 0.5 mg/kg/day (Plasmodium berghei [1]; Table 5, 0.5 mg/kg/day, once a day for four days, oral gavage, read-out: Mice Cured (%)): 0% | responders at 1 mg/kg/day (Plasmodium berghei [1]; Table 5, 1 mg/kg/day, once a day for four days, oral gavage, read-out: Mice Cured (%)): 0% | responders at 2 mg/kg/day (Plasmodium berghei [1]; Table 5, 2 mg/kg/day, once a day for four days, oral gavage, read-out: Mice Cured (%)): 0% | responders at 4 mg/kg/day (Plasmodium berghei [1]; Table 5, 4 mg/kg/day, once a day for four days, oral gavage, read-out: Mice Cured (%)): 100% | responders at 4 mg/kg (Plasmodium berghei [1]; 1 dose, oral gavage, read-out: Mice Cured (%)): 0% | responders at 4 mg/kg (Plasmodium berghei [1]; 2 daily doses, oral gavage, read-out: Mice Cured (%)): 0% | responders at 4 mg/kg (Plasmodium berghei [1]; 4 daily doses, oral gavage, read-out: Mice Cured (%)): 100% | responders at 40 mg/kg (Plasmodium berghei [1]; Table 7, 40 mg/kg, 2 doses, oral gavage, read-out: Mice Cured (%)): 100% | responders at 4 mg/kg (Plasmodium berghei [6]; Table 6, 4 mg/kg, 3 daily doses): 20% | responders at 40 mg/kg (Plasmodium berghei [6]; Table 7, 40 mg/kg, 1 dose): 0% | responders at 80 mg/kg (Plasmodium berghei [6]; Table 7, 80 mg/kg, 1 dose): 20%

CC(C)(CN)CNC(=O)C[C@@H]1CCC[C@]2(C1)OOC1(O2)C2CC3CC(C2)CC1C3 (stereo partly drawn) [12d, N-(3-Amino-2,2-dimethylpropyl)-2-((R,R)-dispiro[adamantane-2,3′-[1,2,4]trioxolane-5′,1″-cyclohexan]-3″-yl)acetamide]
T1/2 [4]: 1.07 h | CLint ([4]; mouse, microsomes): 10.8 μL/min/mg of protein | T1/2 (min) No NADPH ([4]; mouse, microsomes): stable | responders at 4 mg/kg/day (Plasmodium berghei [1]; [9]): 0% | responders at 6 mg/kg/day (Plasmodium berghei [1]; [10]): 0%

O=C(C[C@@H]1CCC[C@]2(C1)OOC1(O2)C2CC3CC(C2)CC1C3)N1CCOCC1 (stereo partly drawn) [12f, 2-((R,R)-Dispiro[adamantane-2,3′-[1,2,4]trioxolane-5′,1″-cyclohexan]-3″-yl)-1-morpholinoethan-1-one]
potency of 12f relative to regioisomer 2f [7]: three-fold more potent than 2f | responders at 4 mg/kg/day (Plasmodium berghei [1]; [9]): 0% | responders at 6 mg/kg/day (Plasmodium berghei [1]; [10]): 0%

O=C(C[C@@H]1CCC[C@]2(C1)OOC1(O2)C2CC3CC(C2)CC1C3)N1CCNCC1 (stereo partly drawn) [12g, 2-((R,R)-Dispiro[adamantane-2,3′-[1,2,4]trioxolane-5′,1″-cyclohexan]-3″-yl)-1-(piperazin-1-yl)ethan-1-one]
T1/2 [4]: 0.425 h | CLint ([4]; mouse, microsomes): 27.2 μL/min/mg of protein | T1/2 (min) No NADPH ([4]; mouse, microsomes): stable | responders at 4 mg/kg/day (Plasmodium berghei [1]; [9]): 0% | responders at 6 mg/kg/day (Plasmodium berghei [1]; [10]): 20%

CN1CCN(C(=O)C[C@@H]2CCC[C@]3(C2)OOC2(O3)C3CC4CC(C3)CC2C4)CC1 (stereo partly drawn) [12h, 2-((R,R)-Dispiro[adamantane-2,3′-[1,2,4]trioxolane-5′,1″-cyclohexan]-3″-yl)-1-(4-methylpiperazin-1-yl)ethan-1-one]
responders at 4 mg/kg/day (Plasmodium berghei [1]; [9]): 0% | responders at 6 mg/kg/day (Plasmodium berghei [1]; [10]): 0%

NC1CCN(C(=O)C[C@@H]2CCC[C@]3(C2)OOC2(O3)C3CC4CC(C3)CC2C4)CC1 (stereo partly drawn) [12i, 1-(4-Aminopiperidin-1-yl)-2-((R,R)-dispiro[adamantane-2,3′-[1,2,4]trioxolane-5′,1″-cyclohexan]-3″-yl)ethan-1-one]
T1/2 [4]: 1.41 h | CLint ([4]; mouse, microsomes): 8.2 μL/min/mg of protein | T1/2 (min) No NADPH ([4]; mouse, microsomes): stable

N[C@H]1CC[C@H](NC(=O)C[C@@H]2CCC[C@]3(C2)OOC2(O3)C3CC4CC(C3)CC2C4)CC1 (stereo partly drawn) [12j, N-((trans)-4-Aminocyclohexyl)-2-((R,R)-dispiro[adamantane-2,3′-[1,2,4]trioxolane-5′,1″-cyclohexan]-3″-yl)acetamide]
responders at 4 mg/kg/day (Plasmodium berghei [1]; [9]): 60% | responders at 6 mg/kg/day (Plasmodium berghei [1]; [10]): 100%

O=C(NCCCNC(=O)C12CC3CC(C1)[C@]1(OO[C@]4(CC[C@@H](c5ccc(OCCN6CCOCC6)cc5)CC4)O1)C(C3)C2)c1ccc(F)cc1 [B9[^18F], N-(3-(4-[^18F]fluorobenzamido)propyl)-4″-(4-(2-morpholinoethoxy)phenyl)dispiro[adamantane-2,3′-[1,2,4]trioxolane-5′,1″-cyclohexane]-5-carboxamide]
biodistribution, subcutaneous vs renal capsule PC3 tumor (PC3 tumor; 300 μCi i.v. tail vein, 60 minutes post-injection): no major differences noticed between the two xenograft models | radioactivity in the tumor (PC3 tumor; PC3-bearing mice, 300 μCi i.v. tail vein, 30, 60 and 90 minutes post-injection): up to 4 % id/gram

CC(C)(N)CNC(=O)C[C@H]1CC[C@]2(CC1)OO[C@]1(O2)C2CC3CC1CC(C(=O)NCCCNC(=O)c1ccc(F)cc1)(C3)C2 [B20[^18F], (1R,2r,3S,4″S,5S,5′s,7S)-4″-(2-((2-amino-2-methylpropyl)amino)-2-oxoethyl)-N-(3-(4-^18F-fluorobenzamido)propyl)dispiro[adamantane-2,3′-[1,2,4]trioxolane-5′,1′″-cyclohexane]-5-carboxamide]
radioactivity in the tumor (PC3 tumor; PC3 tumor-bearing nude mice, 300 μCi i.v. tail vein, 60 and 90 minutes post-injection): about 0.3 % id/gram

C[C@H]1[C@@H](O)O[C@@H]2O[C@@]3(C)CC[C@H]4[C@H](C)CC[C@@H]1[C@@]24OO3 [DHA, dihydroartemisinin]
half-life [8]: ~1 h

Cc1ncc2n1-c1ccc(Cl)cc1C(c1ccccc1F)=NC2 [midazolam]
T1/2 [4]: 0.0275 h | CLint ([4]; mouse liver microsomes, CLint = Ln(2)*1000/T1/2/protein concentration): 420 μL/min/mg of protein

C[C@]12CC[C@H]3[C@@H](CCC4=CC(=O)CC[C@@]43C)[C@@H]1CC[C@@H]2O [testosterone]
Solubility [5]: 315 µM (≈ 90.9 µg/mL)
